Measurements taken from article PMC7749003 (SLAS discovery : advancing life sciences R & D, 2020).

Target: nCDase (Homo sapiens, UniProt Q9NR71)
Assay: manual RBM-ceramide assay with fresh compounds
Format: biochemical
Details: dose titration

Chain of nCDase (Q9NR71 99-780 limits assumed): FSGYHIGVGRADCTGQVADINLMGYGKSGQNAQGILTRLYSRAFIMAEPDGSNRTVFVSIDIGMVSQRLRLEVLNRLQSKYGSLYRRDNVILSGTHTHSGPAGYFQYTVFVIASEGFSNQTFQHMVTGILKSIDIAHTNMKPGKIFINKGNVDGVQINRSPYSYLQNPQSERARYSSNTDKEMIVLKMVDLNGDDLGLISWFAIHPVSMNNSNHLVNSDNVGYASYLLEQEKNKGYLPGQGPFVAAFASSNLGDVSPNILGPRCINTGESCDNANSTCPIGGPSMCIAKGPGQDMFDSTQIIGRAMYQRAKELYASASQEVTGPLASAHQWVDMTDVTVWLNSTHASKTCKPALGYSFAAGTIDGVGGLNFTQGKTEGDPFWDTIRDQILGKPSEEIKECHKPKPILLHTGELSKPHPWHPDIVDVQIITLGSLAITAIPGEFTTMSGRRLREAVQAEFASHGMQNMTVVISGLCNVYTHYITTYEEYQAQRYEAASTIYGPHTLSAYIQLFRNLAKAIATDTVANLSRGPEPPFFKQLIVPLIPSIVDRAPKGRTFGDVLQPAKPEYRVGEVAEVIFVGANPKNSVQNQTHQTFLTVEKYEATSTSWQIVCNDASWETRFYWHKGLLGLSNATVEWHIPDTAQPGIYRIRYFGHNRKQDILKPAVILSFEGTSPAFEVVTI

IC50: 4 µM
SMILES: CC(/C=C/C(=O)NO)=C\[C@@H](C)C(=O)c1ccc(N(C)C)cc1 [TSA, Trichostatin A]
